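Results reflect a 48-hour exposure of cells in 96-well plates to compound at five concentrations. GI50 = concentration required for 50% inhibition of growth. TGI marks complete inhibition of growth.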 Calls of active or inactive are those of the source. No stated cut-off is given here; in the data, active means GI50 below about 0.43 µM; inactive means the rest.
Tests used:
Assay in all cases: NCI anticancer screen, dose series, 48 h
SW-620 colon = system: SW-620 colon
KM12 colon = system: KM12 colon
NCI-H522 lung = system: NCI-H522 lung
A549 NSCLC = system: A549 NSCLC
HL-60(TB) leukemia = system: HL-60(TB) leukemia
MALME-3M melanoma = system: MALME-3M melanoma
COLO 205 colon = system: COLO 205 colon
HCC-2998 colon = system: HCC-2998 colon
LOX IMVI melanoma = system: LOX IMVI melanoma
HS 578T breast = system: HS 578T breast
CAKI-1 renal = system: CAKI-1 renal

| SMILES | TGI (SW-620 colon) [µM] | TGI (KM12 colon) [µM] | TGI (NCI-H522 lung) [µM] | TGI (A549 NSCLC) [µM] | TGI (HL-60(TB) leukemia) [µM] | TGI (MALME-3M melanoma) [µM] | TGI (COLO 205 colon) [µM] | TGI (HCC-2998 colon) [µM] | TGI (LOX IMVI melanoma) [µM] | GI50 (NCI-H522 lung) [µM] | GI50 (COLO 205 colon) [µM] | GI50 (LOX IMVI melanoma) [µM] | GI50 (HS 578T breast) [µM] | TGI (HS 578T breast) [µM] | TGI (CAKI-1 renal) [µM] | outcome (SW-620 colon) | outcome (NCI-H522 lung) | GI50 (HL-60(TB) leukemia) [µM] | outcome (MALME-3M melanoma) | outcome (HS 578T breast) |
| --- | --- | --- | --- | --- | --- | --- | --- | --- | --- | --- | --- | --- | --- | --- | --- | --- | --- | --- | --- | --- |
| Cc1ccc(C#CS(=O)(=O)C(F)(F)F)cc1 | > 100 | > 100 | > 100 | > 100 | > 31.6 | > 100 | > 100 | > 100 | > 31.6 | – | – | – | – | – | – | – | – | – | – | – |
| COc1cc(-c2nc3cc(Cl)c(Cl)cc3[nH]2)ccc1OCC(=O)N=Nc1c(O)[nH]c2ccc(Cl)cc12 | – | – | 2.08 | – | – | – | 1.22 | – | 0.738 | 0.386 | 0.344 | 0.233 | 1.04 | 3.71 | – | – | – | – | – | – |
| N#Cc1ccc(C2Oc3ccc(Cl)cc3C=C2[N+](=O)[O-])cc1 (configuration not stated) | – | 3.81 | 2.92 | 3.3 | 3.91 | 4.79 | 1.87 | 3.21 | 3.02 | – | – | – | – | 47.6 | 2.96 | – | – | – | – | – |
| O=Cc1c(Br)[nH]c2ccccc12 | > 100 | > 100 | > 100 | > 100 | > 100 | > 100 | > 100 | > 100 | > 100 | – | – | – | – | – | – | – | – | – | – | – |
| Cc1cc2oc3c(ccc(=O)n3C)c(=O)c2c(C)c1Cl | > 100 | > 100 | > 100 | > 100 | > 100 | > 100 | > 100 | > 100 | > 100 | – | – | – | – | 93 | > 100 | – | – | – | – | – |
| O=NN1C(c2ccccc2)CCCC1c1ccccc1 (configuration not stated) | > 100 | > 100 | > 81.2 | > 100 | > 75.2 | > 100 | > 100 | > 100 | > 100 | – | – | – | – | – | > 100 | – | – | – | – | – |
| CCCCOc1ccc2c(c1)CC[C@@H]1[C@@H]2CC[C@]2(C)C(=O)N(CCCC)C(=O)C[C@@H]12 | – | > 100 | > 100 | – | > 100 | > 100 | > 100 | > 100 | – | – | – | – | – | > 100 | > 100 | – | – | – | – | – |
| CCOC(=O)C1=C(c2ccccc2)C12N(Cc1ccccc1)C(=O)C2(c1ccccc1)c1ccccc1 (configuration not stated) | > 100 | > 100 | 75.2 | – | > 100 | > 100 | 60.1 | 90.3 | > 100 | – | – | – | – | > 100 | – | – | – | – | – | – |
| O=C1c2cc3c(cc2CC1Cc1ccc2c(c1)CCC2)CCC3 (configuration not stated) | > 100 | > 100 | > 100 | > 100 | > 100 | > 100 | 52.2 | > 100 | > 100 | – | – | – | – | > 100 | – | – | – | – | – | – |
| O=C(c1ccccc1O)c1cc(-c2ncc3c(=O)c4ccccc4oc3n2)c(-c2ccccc2O)[nH]c1=O | > 77.1 | > 80 | 61.5 | 73.1 | 53.2 | 74.4 | > 100 | 38.2 | 39.1 | – | – | – | – | – | > 33.3 | – | – | – | – | – |
| O=P(O)(O)CN1CCNCCN(CP(=O)(O)O)CCN(CP(=O)(O)O)CCNCC1 | – | – | – | – | 55.8 | 44.1 | – | – | – | – | – | – | – | – | 86100 | inactive | inactive | 48900 | inactive | inactive |
